{"source": "patent US9522123B2", "about": "“Use of one or a combination of phyto-cannabinoids in the treatment of epilepsy” (GW Pharma Limited, priority 2009, dated 2016)", "key": {"[1]": {"system": "PTZ-induced seizures", "assay": "PTZ (pentylenetetrazole)-induced model of generalised seizures", "type": "in vivo, rat"}, "[2]": {"system": "pilocarpine-induced seizures", "assay": "Pilocarpine-induced model of temporal lobe seizures", "type": "in vivo, rat", "settings": "pilocarpine 380 mg/kg", "description": "(§1) Pure THCV was injected intra-peritoneally (IP) in the standard vehicle (1:1:18 ethanol:Cremophor:0.9% w/v NaCl) at doses of 0.025, 0.25 and 2.5 mg/kg alongside animals that received vehicle alone at a matched volume (n≧14 for each group). 15 minutes later methylscopolamine (1 mg/kg; to reduce peripheral muscarinic effects of pilocarpine) was administered followed, 45 minutes later by pilocarpine (380 mg/kg, IP) administration.\nas §1, with “CBD” for “THCV”, “1, 10” for “0.025, 0.25”, “100” for “2.5”"}, "[3]": {"system": "penicillin-induced seizures", "assay": "Penicillin-induced model of partial seizures", "type": "in vivo, rat", "settings": "for development of the most severe seizures (tonic-clonic seizures without postural control): 150 IU penicillin", "description": "CBD (1, 10 and 100 mg/kg) or CBD vehicle (1:1:18 ethanol:Cremophor: 0.9% w/v NaCl) was administered i.p. to adult male Wistar rats (>250 g). One week prior to this, animals had been surgically implanted with a cannula into the right lateral ventricle under anaesthesia. One hour after CBD administration, 150 IU penicillin was infused into the right lateral ventricle in 1.5 μl saline solution over one minute and seizure behaviour video recorded for two hours.\nFollowing detailed examination of animal responses to penicillin alone (using data obtained from vehicle control groups, a finalised seizure scoring scale for penicillin-induced partial seizures has been derived. The following scoring system which was derived from several existing and published scoring systems for this model, will therefore be used for analysis of drug effects upon such seizures."}, "[4]": {"system": "seizures in institutionalized children", "settings": "5 institutionalized children not responding to phenobarbital and phenytoin; cited from earlier work"}}}
{"smiles": "C=C(C)[C@@H]1CCC(C)=C[C@H]1c1c(O)cc(CCCCC)cc1O", "note": "[CBD, cannabidiol]", "values": [{"measurement": "animals that died (mortality)", "setting": "[1]; 100 mg/kg CBD IP, 60 minutes before 80 mg/kg PTZ, p<0.001 vs vehicle", "result": 6.7, "unit": "%"}, {"measurement": "percentage mortality vs control", "setting": "[2]; 10 mg/kg CBD", "result": "significant increase"}, {"measurement": "percentage duration of time spent in a tonic-clonic state compared to the total duration of the seizure period", "setting": "[2]; CBD 1 mg/kg and 100 mg/kg", "result": "significantly reduced"}, {"measurement": "percentage of animals exhibiting tonic-clonic seizures", "setting": "[2]; CBD 1 mg/kg and 100 mg/kg", "result": "significantly reduced"}, {"measurement": "mean frequency of all other seizure scores", "setting": "[2]; CBD 1, 10, 100 mg/kg vs control", "result": "no significant differences"}, {"measurement": "mean tonic-clonic frequency", "setting": "[2]; CBD all doses tested (1, 10, 100 mg/kg)", "result": "significant reduction"}, {"measurement": "percentage of animals manifesting with bilateral forelimb clonus with rearing and falling", "setting": "[2]; CBD doses >1 mg/kg", "result": "significantly reduces"}, {"measurement": "percentage of animals showing unilateral forelimb clonus", "setting": "[2]; CBD doses >1 mg/kg", "result": "significant decreases"}, {"measurement": "latency to the onset of seizure", "setting": "[2]; pure CBD 1, 10, 100 mg/kg IP", "result": "No significant effect"}, {"measurement": "mean maximum severity of seizure", "setting": "[2]; pure CBD 1, 10, 100 mg/kg", "result": "no effect"}, {"measurement": "percentage of animals exhibiting bilateral forelimb clonus", "setting": "[2]; pure CBD 1, 10, 100 mg/kg", "result": "no significant differences"}, {"measurement": "frequency with which animals experienced the most severe seizures", "setting": "[3]; 10 mg/kg CBD vs vehicle, p=0.071", "result": "near-significant effect"}, {"measurement": "development of the most severe seizures (tonic-clonic seizures without postural control)", "setting": "[3]; 100 mg/kg CBD i.p., p=0.001", "result": "completely prevented development"}, {"measurement": "frequency with which animals experienced the most severe seizures", "setting": "[3]; 100 mg/kg CBD vs vehicle, p=0.006", "result": "significant decrease"}, {"measurement": "median severity of penicillin-induced seizures", "setting": "[3]; 100 mg/kg CBD vs vehicle, p=0.012", "result": "significantly reduced"}, {"measurement": "mortality compared to vehicle", "setting": "[3]; 100 mg/kg CBD, p=0.057", "result": "near-significant effect"}, {"measurement": "development of the most severe seizures (tonic-clonic seizures without postural control)", "setting": "[3]; 1 and 10 mg/kg CBD i.p., p=0.076 for both", "result": "Near-significant decreases"}, {"measurement": "proportion of animals that remained seizure-free", "setting": "[3]; all doses of CBD (1, 10 and 100 mg/kg), p<0.001", "result": "significantly increased"}]}
{"smiles": "CCCCCc1cc(O)c2c(c1)OC(C)(C)[C@@H]1CCC(C)=C[C@@H]21", "note": "[THC, tetrahydrocanibinol]", "values": [{"measurement": "seizure outcome", "setting": "[4]", "result": "One became entirely free of seizures, one became almost completely free of seizures, and the other three did no worse than before"}]}
{"smiles": "CCCc1cc(O)c2c(c1)OC(C)(C)[C@@H]1CCC(C)=C[C@@H]21", "note": "[THCV, tetrahydrocannabivarin]", "values": [{"measurement": "latency to first manifestation of seizure-like behaviour", "setting": "[1]; pure THCV 0.025, 0.25, 2.5 mg/kg vs vehicle, 80 mg/kg PTZ", "result": "increased latency"}, {"measurement": "latency to score of [5]", "setting": "[1]; pure THCV all doses, 80 mg/kg PTZ, p=0.013 at highest dose", "result": "increased latencies, reaching a significant level at the highest dose of THCV"}, {"measurement": "latency to score of [3]", "setting": "[1]; pure THCV all doses, 80 mg/kg PTZ, p=0.017 at highest dose", "result": "increased latencies, reaching a significant level at the highest dose of THCV"}, {"measurement": "delay of seizure onset (latency to first seizure sign)", "setting": "[1]; pure THCV highest dose 2.5 mg/kg, 80 mg/kg PTZ, p=0.02", "result": "delay of onset was significant"}, {"measurement": "duration of PTZ-induced seizures in animals that survived", "setting": "[1]; pure THCV medium dose 0.25 mg/kg vs vehicle, 80 mg/kg PTZ, p=0.03", "result": "significantly shorter"}, {"measurement": "percentage of animals showing bilateral forelimb clonus with rearing and falling", "setting": "[2]; 0.25 mg/kg THCV", "result": "significant increase"}, {"measurement": "percentage of animals showing bilateral forelimb clonus with rearing and falling", "setting": "[2]; THCV doses other than 0.25 mg/kg (0.025, 2.5 mg/kg)", "result": "this effect was not seen at any other dose"}, {"measurement": "latency to the onset of seizure", "setting": "[2]; pure THCV 0.025, 0.25, 2.5 mg/kg IP", "result": "No significant effect"}, {"measurement": "mean maximum severity of seizure", "setting": "[2]; pure THCV 0.025, 0.25, 2.5 mg/kg", "result": "no effect"}, {"measurement": "percentage mortality vs control", "setting": "[2]; pure THCV any dose", "result": "No significant change"}, {"measurement": "percentage of animals showing bilateral forelimb clonus", "setting": "[2]; pure THCV any dose", "result": "no significant changes"}, {"measurement": "percentage of animals showing tonic-clonic seizures", "setting": "[2]; pure THCV any dose", "result": "no significant changes"}, {"measurement": "percentage of animals showing unilateral forelimb clonus", "setting": "[2]; pure THCV any dose", "result": "no significant changes"}]}
